# Source: patent publication US11400106B2, “Methods for inhibiting microbe growth” (priority 2018, dated 2022)
# Like-named read-outs stand apart in the source and are kept apart here. Where a SMILES comes first, the peptide text is derived from it.
# Assays:
# [1] = tested on: S. aureus; assay: microbe, parasite or virus in culture; details: for MIC: Staphylococcus aureus, read-out: MIC, S. aureus, MHB−; for Fold, S. aureus: fold shift in MIC
# Description: (§1) In the following experiments, bacterial cells were cultured in 96-well microtiter plates in cation-adjusted Mueller-Hinton Broth (MHB) for 18 h at 37° C. The main strains used were E. coli (K-12 BW25113) (placed in stationary incubator) and S. aureus (Newman Strain) (incubated at 250 r.p.m). Knockout strains (ΔtolcC and ΔychM) were used from the Keio knockout collection (Baba et al., Construction of Escherichia coli K-12 in-frame, single-gene knockout mutants: the Keio collection. Mol Syst Biol 2, 2006 0008, doi:10.1038/msb4100050 (2006)). For MIC determination and checkerboard analyses, Clinical & Laboratory Standards Institute (CLSI) protocol was used. […] DiSC3 loading of S. aureus cells was performed as previously described (Farha et al., Collapsing the proton motive force to identify synergistic combinations against Staphylococcus aureus. Chemistry & biology 20, 1168-1178, doi:10.1016/j.chembiol.2013.07.006 (2013)). CCCP concentration of 20 μM was used. pH adjustments were made by addition of HCl or NaOH. INT assay and ATP bioluminescence assays were performed as previously described (Farha et al., Collapsing the proton motive force to identify synergistic combinations against Staphylococcus aureus. Chemistry & biology 20, 1168-1178, doi:10.1016/j.chembiol.2013.07.006 (2013)). For chemical-genomic studies, the Keio library was grown overnight in cation-adjusted MHB broth, in 384-well plates. From these, treatment plates (25 mM sodium bicarbonate, or a sterile water control) were inoculated and grown for 15 hours at 37° C., in a stationary incubator. Data was normalized according to Mangat et al (Mangat et al., Rank ordering plate data facilitates data visualization and normalization in high-throughput screening. J Biomol Screen 19, 1314-1320, doi:10.1177/1087057114534298 (2014)), with gene products and GO terms mined from EcoCyc. The GFP promoter library (Keseler et al., EcoCyc: fusing model organism databases with systems biology. Nucleic Acids Res 41, D605-612, doi:10.1093/nar/gks1027 (2013)) was grown for 18 hours at ambient temperature with the same inoculation strategy as with the Keio collection. The analysis pipeline of Zaslaver et al (Zaslaver et al., A comprehensive library of fluorescent transcriptional reporters for Escherichia coli. Nat Methods 3, 623-628, doi:10.1038/nmeth895 (2006)) was used to generate maps of promoter activity, from which lists of promoters with increased or decreased activity were compiled.
# (§2) Fold enhancement in MICs in the media supplemented with sodium bicarbonate is represented by a positive fold, whereas suppression of activity is represented by a negative fold.
# (§3) The effect of sodium bicarbonate on the activity of additional antibacterial agents was investigated. Clinical isolates of various bacteria were obtained from the ATCC and the IHMA.
# (§4) The effect of sodium bicarbonate on the activity of cationic antiseptic agents was investigated. Clinical isolates of various bacteria were obtained from the ATCC and the IHMA.
# [2] = tested on: E. coli; assay: microbe, parasite or virus in culture; assay type: cell-based, Escherichia coli; details: for MIC: Escherichia coli, 18 h, read-out: MIC, E. coli, MHB−; for Fold, E. coli: fold shift in MIC
# Description: as §1, §2, §3, §4
# [3] = antibiotic agents, MHB in the absence of sodium bicarbonate
# [4] = MHB in the absence of sodium bicarbonate
# [5] = antiseptic agents, MHB in the absence of sodium bicarbonate
# [6] = antiseptic agents, MHB in the presence of 25 mM sodium bicarbonate
SMILES,"MIC, S. aureus, MHB+ [1]",MIC ([1]; 18 h) [µg/mL],"MIC, E. coli, MHB+ [2]","MIC [2, 4] [µg/mL]",other results
NCC[C@H](O)C(=O)N[C@@H]1C[C@H](N)[C@@H](O[C@H]2O[C@H](CN)[C@@H](O)[C@H](O)[C@H]2O)[C@H](O)[C@H]1O[C@H]1O[C@H](CO)[C@@H](O)[C@H](N)[C@H]1O [Amikacin],8 μg of antimicrobial agent/mL of buffer,4,4 μg of antimicrobial agent/mL of buffer,–,"MIC [2, 3]: 4 µg/mL"
CC1(C)S[C@@H]2[C@H](NC(=O)[C@H](N)c3ccc(O)cc3)C(=O)N2[C@H]1C(=O)O [Amoxicillin],1,0.25,–,–,MIC [2]: 8 µg/mL
CC1(C)S[C@@H]2[C@H](NC(=O)[C@H](N)c3ccccc3)C(=O)N2[C@H]1C(=O)O [Ampicillin],8,1,–,16,–
CN[C@@H]1[C@@H](O[C@H]2O[C@H](CO)[C@@H](N)[C@H](O)[C@H]2O)OC2C[C@@H](N)[C@@H](O[C@H]3[C@H](O)[C@@H](O)[C@H](N)C[C@@H]3N)OC2[C@@H]1O (stereo partly drawn) [Apramycin],32,16,–,32,–
"CC[C@H](C)[C@H](N)C1=N[C@H](C(=O)N[C@@H](CC(C)C)C(=O)N[C@H](CCC(=O)O)C(=O)N[C@H](C(=O)N[C@H]2CCCCNC(=O)[C@H](CC(N)=O)NC(=O)[C@@H](CC(=O)O)NC(=O)[C@H](Cc3cnc[nH]3)NC(=O)[C@@H](Cc3ccccc3)NC(=O)[C@H]([C@@H](C)CC)NC(=O)[C@@H](CCCN)NC2=O)[C@@H](C)CC)CS1 [Bacitracin] (HELM PEPTIDE1{[CC[C@H](C)[C@H](N)C1=N[C@H](C(=O)[*:2])CS1].L.[dE].I.K.[NCCC[C@@H](N[*:1])C(=O)[*:2]].I.[dF].H.[dD].N}$PEPTIDE1,PEPTIDE1,5:R3-11:R2$$$V2.0)",64,32,–,> 256,–
"CC[C@H](C)[C@@H]1NC(=O)[C@H](CCCNC(=N)N)NC(=O)[C@@H](NC(=O)[C@H](CC(C)C)NC(=O)[C@@H](N)CCCNC(=N)N)CSSC[C@@H](C(=O)N[C@@H](CCCNC(=N)N)C(=O)O)NC(=O)[C@H](C(C)C)NC(=O)[C@H](CCCNC(=N)N)NC(=O)[C@H]([C@@H](C)CC)NC(=O)[C@H](C(C)C)NC(=O)[C@H](C(C)C)NC1=O [Bactenesin] (HELM PEPTIDE1{R.L.C.R.I.V.V.I.R.V.C.R}$PEPTIDE1,PEPTIDE1,3:R3-11:R3$$$V2.0; N-terminus and C-terminus assumed; bridges inferred)",–,–,–,–,"MIC in MHB ([1]; Newman, 18 h): 128 µg/mL; MIC in MHB + 25 mM bicarbonate ([1]; Newman, 18 h): 0.5 µg/mL; enhancement of antimicrobial activity in the presence of bicarbonate [2]: 256 fold"
NC(=O)c1ccccc1 [Benzamide],>128 μg of antimicrobial agent/mL of buffer,> 128,>128 μg of antimicrobial agent/mL of buffer,–,"MIC [2, 3]: > 128 µg/mL"
N[C@@H]1CCCCN(c2c(F)cc3c(=O)c(C(=O)O)cn(C4CC4)c3c2Cl)C1 [Besifloxacin],0.25,0.125,–,0.25,effect of 25 mM sodium bicarbonate on antibacterial activity [2]: increased
N[C@@H](C(=O)N[C@@H]1C(=O)N2C(C(=O)O)=C(Cl)CS[C@H]12)c1ccccc1 [Cefaclor],8 μg of antimicrobial agent/mL of buffer,2,4 μg of antimicrobial agent/mL of buffer,–,"MIC [2, 3]: 4 µg/mL"
CCN1CCN(C(=O)N[C@@H](C(=O)N[C@@H]2C(=O)N3C(C(=O)O)=C(CSc4nnnn4C)CS[C@H]23)c2ccc(O)cc2)C(=O)C1=O [Cefoperazone],4,0.25,–,0.125,–
CO/N=C(\C(=O)N[C@@H]1C(=O)N2C(C(=O)O)=C(COC(C)=O)CS[C@H]12)c1csc(N)n1 [Cefotaxime],2 μg of antimicrobial agent/mL of buffer,0.5,8 μg of antimicrobial agent/mL of buffer,–,"MIC [2, 3]: 4 µg/mL"
CO/N=C(\C(=O)N[C@@H]1C(=O)N2C(C(=O)O)=C(CSc3nc(=O)c(=O)[nH]n3C)CS[C@H]12)c1csc(N)n1 [Ceftriaxone],16,4,–,0.625,–
CCCCCCCCCCCCCCCC[N+](C)(C)C.[Br-] [Cetrimodium bromide],–,–,–,–,"MIC, S. aureus, MHB [1, 5]: 16 μg of antimicrobial agent/mL of buffer; MIC, S. aureus, MHB+ [1, 6]: 4 μg of antimicrobial agent/mL of buffer; Fold, S. aureus ([1]; antiseptic agents): 4; MIC, E. coli, MHB [2, 5]: >128 μg of antimicrobial agent/mL of buffer; MIC, E. coli, MHB+ [2, 6]: 32 μg of antimicrobial agent/mL of buffer; Fold, E. coli ([2]; antiseptic agents): 4"
O=C(N[C@H](CO)[C@H](O)c1ccc([N+](=O)[O-])cc1)C(Cl)Cl [Chloramphenicol],8,8,–,8,"effect of 25 mM sodium bicarbonate on antibacterial activity ([1]; S. aureus, result in words): remained largely unchanged; effect of 25 mM sodium bicarbonate on antibacterial activity [2]: remained largely unchanged"
[H]/N=C(\N/C(=N/[H])NCCCCCCNC(=N)NC(=N)Nc1ccc(Cl)cc1)Nc1ccc(Cl)cc1 [Chlorhexidine],0.0625 μg of antimicrobial agent/mL of buffer,–,0.125 μg of antimicrobial agent/mL of buffer,–,"MIC, S. aureus, MHB [1]: 0.5 μg of antimicrobial agent/mL of buffer; MIC, E. coli, MHB [2]: 0.5 μg of antimicrobial agent/mL of buffer"
CC[C@H]1OC(=O)[C@H](C)[C@@H](O[C@H]2C[C@@](C)(OC)[C@@H](O)[C@H](C)O2)[C@H](C)[C@@H](O[C@@H]2O[C@H](C)C[C@H](N(C)C)[C@H]2O)[C@](C)(OC)C[C@@H](C)C(=O)[C@H](C)[C@@H](O)[C@]1(C)O [Clarithromycin],0.062 μg of antimicrobial agent/mL of buffer,0.5,8 μg of antimicrobial agent/mL of buffer,–,"MIC [2, 3]: 64 µg/mL"
CCC[C@@H]1C[C@@H](C(=O)N[C@@H]([C@H]2O[C@H](SC)[C@H](O)[C@@H](O)[C@H]2O)[C@H](C)Cl)N(C)C1 [Clindamycin],0.12 μg of antimicrobial agent/mL of buffer,0.25,128 μg of antimicrobial agent/mL of buffer,–,"MIC [2, 3]: 128 µg/mL"
Cc1onc(-c2ccccc2Cl)c1C(=O)N[C@@H]1C(=O)N2[C@@H]1SC(C)(C)[C@@H]2C(=O)O [Cloxacillin],0.5,0.031,–,256,–
N=C(N)c1ccc(OCCCOc2ccc(C(=N)N)cc2Br)c(Br)c1.O=S(=O)(O)CCO.O=S(=O)(O)CCO [Dibrompropamidine diisetionate],–,–,–,–,"MIC, S. aureus, MHB [1, 5]: 4 μg of antimicrobial agent/mL of buffer; MIC, S. aureus, MHB+ [1, 6]: 1 μg of antimicrobial agent/mL of buffer; Fold, S. aureus ([1]; antiseptic agents): 4; MIC, E. coli, MHB [2, 5]: 64 μg of antimicrobial agent/mL of buffer; MIC, E. coli, MHB+ [2, 6]: 16 μg of antimicrobial agent/mL of buffer; Fold, E. coli ([2]; antiseptic agents): 4"
CC[C@H]1OC(=O)[C@H](C)[C@@H](O[C@H]2C[C@@](C)(OC)[C@@H](O)[C@H](C)O2)[C@H](C)[C@@H](O[C@@H]2O[C@H](C)C[C@H](N(C)C)[C@H]2O)[C@](C)(O)C[C@@H](C)C(=O)[C@H](C)[C@@H](O)[C@]1(C)O [Erythromycin],1,32,–,–,–
CC[C@H](C)[C@H](N)C(=O)N[C@@H](CC(C)C)C(=O)N1CCC[C@H]1C(=O)N[C@@H](Cc1c[nH]c2ccccc12)C(=O)N[C@@H](CCCCN)C(=O)N[C@@H](Cc1c[nH]c2ccccc12)C(=O)N1CCC[C@H]1C(=O)N[C@@H](Cc1c[nH]c2ccccc12)C(=O)N[C@@H](Cc1c[nH]c2ccccc12)C(=O)N1CCC[C@H]1C(=O)N[C@@H](Cc1c[nH]c2ccccc12)C(=O)N[C@@H](CCCNC(=N)N)C(=O)N[C@@H](CCCNC(=N)N)C(N)=O [Indolicidin],–,–,–,–,"enhancement of antimicrobial activity in the presence of bicarbonate ([1]; S. aureus, 25 mM sodium bicarbonate): 16 fold"
Cc1ncc([N+](=O)[O-])n1CCO [Metronidazole],–,> 128,–,–,–
O=C([O-])O.[K+] [Potassium bicarbonate],–,–,–,–,"MIC of dirithromycin in the presence of the salt ([2]; E. coli, salt at 25 mM, pH adjusted to 7.4): 4 µg/mL"
